Tests used:
Human NK1 Receptor = target: T1, Human NK1 Receptor (Homo sapiens, UniProt P25103); assay: In Vitro Human NK1 Receptor Binding Assay ([125I]Bolton-Hunter substance P displacement, IM9 cells); settings: Human lymphoma IM9 cells, [125I]Bolton-Hunter substance P (0.05-0.1 nM), 50 min at 21° C.; Table 1; read-out: NK1 binding IC50
T1 construct: endogenous in cells; host or cells: Human lymphoma IM9 cells (whole cells)
Summary of the method: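 Radioligand displacement on whole IM9 human lymphoma cells (2.5×10^6 cells/mL) using [125I]Bolton-Hunter substance P (0.05-0.1 nM), 50 min at 21° C in Tris pH 7.4/MnCl2 buffer with protease inhibitors. Non-specific binding defined by […] [Sar9, Met(O2)11] substance P. Filtration, gamma counting, iterative curve fitting.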

T1 sequence (P25103 whole entry): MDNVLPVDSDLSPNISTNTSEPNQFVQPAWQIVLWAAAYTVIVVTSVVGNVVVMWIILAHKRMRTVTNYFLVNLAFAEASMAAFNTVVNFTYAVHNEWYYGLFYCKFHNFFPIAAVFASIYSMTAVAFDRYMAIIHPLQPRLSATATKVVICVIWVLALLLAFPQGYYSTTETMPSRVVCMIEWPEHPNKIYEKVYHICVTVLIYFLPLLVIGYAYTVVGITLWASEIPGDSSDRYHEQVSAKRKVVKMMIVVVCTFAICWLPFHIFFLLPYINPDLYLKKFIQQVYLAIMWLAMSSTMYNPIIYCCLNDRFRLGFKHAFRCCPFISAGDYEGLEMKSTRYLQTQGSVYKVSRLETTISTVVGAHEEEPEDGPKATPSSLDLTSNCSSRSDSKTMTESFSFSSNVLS

Row | Compound | IC50 (Human NK1 Receptor) [nM] | melting point [°C]
1 | C[C@H](NC(=O)[C@@H](Cc1c[nH]c2ccccc12)NCc1cc2ccccc2s1)c1ccccc1 [Example 10, 2-[(Benzo[b]thiophen-2-ylmethyl)-amino]-3-(1H-indol-3-yl)-N-(1-phenyl-ethyl)-propionamide] | 51 | 102 to 108
2 | C[C@H](NC(=O)[C@@](C)(Cc1c[nH]c2ccccc12)NCc1ccc[nH]1)c1ccccc1 (relative stereo) [Example 20, 3-(1H-Indol-3-yl)-2-methyl-N-(1-phenyl-ethyl)-2-[(1H-pyrrol-2-ylmethyl)-amino]-propionamide, (R-(R*,S*)]] | 815 | 123 to 133
3 | C[C@H](NC(=O)[C@@](C)(Cc1c[nH]c2ccccc12)NCc1coc2ccccc12)c1ccccc1 (relative stereo) [Example 19, 2-[(Benzofuran-3-ylmethyl)-amino]-3-(1H-indol-3-yl)-2-methyl-N-(1-phenyl-ethyl)-propionamide, [R-(R*,S*)]] | 58 | 104 to 106
